The text below walks through data of patent US20140011867A1, “EFFECT OF BORRELIDIN FOR CONTROLLING SOYBEAN PHYTOPHTHORA ROOT ROT” (ZHEJIANG HISUN PHARMACEUTICAL CO., LTD., priority 2011, published 2014).

The test system of the test is Phytophthora sajae Kaufmann & Gerdeman. Put plainly: Mycelial growth inhibition assay (growth rate method). The class given is cell-based. Details: IC50 as fraction of that of metalaxyl: unit not given beside the values. Here is the method: Growth rate method was used in the assays. […] Phytophthora sajae Kaufmann & Gerdeman cultures after 7 days of culture were punched using a sterile punch (Ø0.5cm) and put on standby, and the cultures were later transferred onto […] (CA) plate culture media and placed at a temperature of 27±1° C., and colony diameters were measured after 7 days of culture.

The mark [1] stands for this setting: mycelial growth, CA plate, 27±1° C., colony diameter after 7 days.
The mark [2] stands for this setting: mycelial growth inhibition assay.

≈ marks a conversion by molar mass, not a printed value. Like-named read-outs stand apart in the source and are kept apart here.

Broadly, the IC50 is the concentration that gives 50% inhibition. As to `COCC(=O)N(c1c(C)cccc1C)C(C)C(=O)OC` (stereo not shown) [Metalaxyl, reference compound], the IC50 (Phytophthora, 168 h, mycelial growth, CA plate, 27±1° C., colony diameter after 7 days, read-out: IC50) was found to be 0.35 µg/mL (≈ 1.25 µM). The same compound registered an IC95 under setting [1] of 6.85 µg/mL (≈ 24.5 µM).
With Borrelidin, under setting [2], the “IC50 as fraction of that of metalaxyl” value was 1/62 and the “IC95 as fraction of that of metalaxyl” value is listed as 1/263. For the setting “mycelial growth inhibition assay, unit inferred”, the IC50 came to 0.0056 µg/mL. The IC95 (mycelial growth inhibition assay, unit not given) amounted to 0.026. For the same compound, under setting [1], the IC95 was 0.026 µg/mL.
